# Values of other authors, collected in patent publication EP2428201A1, “Oral administration of nucleoside monophosphates” (Merck Serono S.A., priority 2010, dated 2012).
# Details: administered orally, compared to the drug given by injection
smiles,measurement,value
"Nc1nc(Cl)nc2c1ncn2[C@H]1C[C@H](O)[C@@H](CO)O1 [cladribine, 2-chloro-2'-deoxyadenosine]",bioavailability,reduced bioavailability
